Laboratory results published in patent US7524490B2, “Clusterin-mediated inhibition of apoptosis via stromal bone marrow cell delivery to a cardiac site” (Board of Regents of the University of Texas System, priority 2004, dated 2009).

Legend:
KG-293 cells = test: TNF-α-induced apoptosis in KG-293 cells with tetracycline-induced intracellular clusterin; type: cell-based, human
Description: Transfection with clusterin cDNA. Initially a plasmid was constructed that contains a truncated form of clusterin cDNA with deletion of the sequence responsible for cross-membrane transport. Transfection of human embryonic 293 cell line with this plasmid leads to intracellular overexpression of a non-secreted form of clusterin. The clusterin gene is under control of a CMV promoter with tetracycline-sensitive elements. […] This plasmid will be used to deliver the truncated clusterin gene into stem cells. The cells will be selected using G418 as the plasmid contains a neomycin-resistant gene.
A plasmid pKS7 that contains a truncated clusterin cDNA with deletion of the transmembrane domain and a neomycin-resistant gene was constructed. The truncated clusterin gene was under regulation by a CMV promoter with tetracycline-responding elements. Stable transfection of the human embryonic kidney cell line T-293 with pKS7 generates a stable cell line (KG-293) with clusterin overexpressed. As shown by Western blot, under stimulation with tetracycline (1 μg/ml) for 24 hours, KG-293 cells but not their precursors, T-293 cells, produced an intracellular form of clusterin at much higher levels (FIG. 7A). […] KG-293 cells overexpressing the intracellular form of clusterin also underwent dramatic alterations in morphology and proliferation. […]

[1] = test system: vascular smooth muscle cells; test: Oxysterol-induced internucleosomal DNA fragmentation and apoptosis in vascular smooth muscle cells; type: cell-based
Description: FIG. 11 is an ethedium bromide-stained agarose gel loaded with DNA samples extracted from clusterin-transfected or non-transfected vascular smooth muscle cells.
Detection of apoptotic cells. Determination of apoptosis needs a combination of techniques in morphology and biochemistry. Apoptosis was detected using the following six techniques: 1) Light microscopy; 2) Fluorescent confocal scanning or non-confocal microscopy, 3). In situ labeling of DNA 3′ ends (TUNEL technique), 4) Electron microscopy, 5) DNA agarose gel electrophoresis, and 6) Flow cytometry. These techniques are describe more particularly as follows: 1) Light microscopy was applied routinely to analyze morphological changes of vascular cells. 2) Fluorescent confocal scanning or non-confocal microscopy was used to characterize cytoskeletal and nuclear alterations after immunofluorescent staining. DAPI or Hoechst dye was used for nuclear morphology under UV excitation. 3). […] The signal of TdT-mediated dUTP nick end labeling (TUNEL) was detected by an anti-digoxigenin antibody conjugated with peroxidase, a reporter enzyme which catalytically generates a brown color product from the chromogenic substrate diaminobenzidine. […] DNA was precipitated in ethanol, and analyzed for fragmentation by 2% agarose gel electrophoresis with ethidium bromide. […] In this study, cell proliferation and apoptosis were analyzed by flow cytometry. […]

[2] = test system: murine cardiac stem cells; test: Apoptosis of cardiac stem cells induced by serum starvation, with or without clusterin; type: cell-based, mouse; details: clusterin-containing DMEM medium, many cells died without clusterin
Protocol: Treatment of stem cells in culture. An in vitro system was first employed to examine the protective effects of clusterin on stem cells. Stem cells were treated with clusterin at different concentrations in the cultures with or without proinflammatory cytokines or T lymphocytes pre-activated by mitogens. After 2-4 days of stimulation, cell survival and apoptosis were examined using a combination of techniques including flow cytometry, fluorescent microscopy, and radioactive isotope labeling, as described below. Control experiments were set up using other types of proteins, such as bovine albumin.
Detection of apoptotic cells. Determination of apoptosis needs a combination of techniques in morphology and biochemistry. Apoptosis was detected using the following six techniques: 1) Light microscopy; 2) Fluorescent confocal scanning or non-confocal microscopy, 3). […] The signal of TdT-mediated dUTP nick end labeling (TUNEL) was detected by an anti-digoxigenin antibody conjugated with peroxidase, a reporter enzyme which catalytically generates a brown color product from the chromogenic substrate diaminobenzidine. […] DNA was precipitated in ethanol, and analyzed for fragmentation by 2% agarose gel electrophoresis with ethidium bromide. […] In this study, cell proliferation and apoptosis were analyzed by flow cytometry. […]

stem cells = test: Clusterin pretreatment of stem cells in serum-free conditioned medium; type: cell-based, mouse; details: 20-30 μg/ml clusterin, 24 hours, preliminary data
Protocol: Stem cell culture and treatment with oxysterols and cytokines. Mouse stem cells were used in this in vitro study. Two groups of proapoptotic agents were used to induce apoptosis of stem cells: oxysterols and cytokines. In group 1, stem cells were treated with 7-ketocholesterol (7-KC) and 25-OH-cholesterol (25-OH—C), two oxysterols known to exist in abundantly in atherosclerotic lesions and to induce apoptosis in cardiovascular cells. Free cholesterol was used as controls. In group 2, stem cells were incubated with a combination of tumor necrosis factor (TNF)-α and interferon (IFN)-γ, two cytokines previously shown to induce apoptosis of stem cells. In addition, to determine whether the Fas death-signaling pathway is involved in apoptosis of stem cells, stem cells were treated with recombinant Fas ligand in the presence of IFN-γ.
Clusterin treatment. In order to determine whether clusterin prevents apoptosis of stem cells, stem cells were pretreated with clusterin purified from serum or synthesized by use of recombinant technology. Stem cells were cultured in a serum-free, conditioned medium supplemented with 20-30 μg/ml clusterin for 24 hours. The preliminary data indicated no apoptosis under the culture condition with clusterin. […] Cells were analyzed for apoptosis using the following methods after treatment. […]

[3] = Dot blotting of clusterin binding to filter-coated lipids; parameters: species or system mouse; details: 10 μg/well serum proteins from TG and WT mice, 30 min, room temperature; anti-clusterin detection
Protocol: As a component of HDL, clusterin helps transport cholesterol crossing the cellular membrane. In atherosclerotic lesions, cholesterol-derived oxysterols accumulate and exert apoptotic effects on vascular cells. Usually, the cytotoxicity of oxysterols including 7-ketocholesterol is much greater than that of free cholesterol. […] Free cholesterol and 7-ketocholesterol dissolved in ethanol were loaded to a filter in a 96-well dot blotting device. 10 μg/well proteins from three TG and WT serum samples were incubated in the wells for 30 min at room temperate. After washing with PBS, the filter was incubated with anti-clusterin antibody (1:200), and then anti-goat IgG conjugated with peroxidase. The dot blotting was developed using an ECL kit. Furthermore, an increased binding activity to the oxysterol in the serum from clusterin transgenic mice, compared to these in wild type mouse serum (FIG. 10), was detected. Thus, clusterin appears to have a higher affinity to some oxidized cholesterol derivatives.

[4] = test system: aldehyde dehydrogenase-1 (ALDH-1); test: Induction of aldehyde dehydrogenase expression in smooth muscle cells (immunoblot); type: cell-based, murine; details: recombinant human clusterin 0, 5, 25, 50 μg/ml; concentration-dependent
Protocol: FIG. 13 is an immunoblot showing induction of aldehyde dehydrogenase-1 (ALDH-1) in murine vascular smooth muscle cells by treatment with recombinant human clusterin (apoJ) at different concentrations (lane 1, 0 μg/ml; lane 2, 5 μg/ml; lane 3, 25 μg/ml; lane 4, 50 μg/ml).
Aldehyde dehydrogenase expression and vitamin A metabolism were investigated to determine whether clusterin exerts its protective effect through upregulation of genes involved in cellular detoxification. Aldehyde dehydrogenases (ALDHs) are a group of intracellular enzymes that mediate NAD-coupled oxidation of aldehydes to carboxylic acids. ALDH is probably most widely known for its role in clearance of acetaldehyde from beverage alcohol by conversion to acetic acid. This enzymes is also involved in retinol metabolism and mediates vitamin A function. Members of the ALDH family are diversed; some have broad substrate specificities (ALDH1 and ALDH2) and other ALDHs are tailored to specific reactions of intermediary metabolism (e.g., methyl malonic semialdehyde dehydrogenase in branched-chain amino acid metabolism). ALDH1 is primarily found in the liver and in adult stem cells including hematopoietic stem cells. […]

## TNF-α [reference compound]
KG-293 cells; TNF-α 10 ng/ml for 24 and 48 hours, cells not exposed to tetracycline
  induction of apoptosis in control KG-293 cells: markedly induced apoptosis

## CC(C)CCC[C@@H](C)[C@H]1CC[C@H]2[C@@H]3C(=O)C=C4C[C@@H](O)CC[C@]4(C)[C@H]3CC[C@]12C [7-ketocholesterol, reference compound]
[1]; exposure to oxysterol
  induction of apoptosis of vascular smooth muscle cells (internucleosomal DNA fragmentation): can trigger apoptosis

## clusterin: sulfated, heterodimeric glycoprotein containing two 40 kDa chains joined by a five disulfide bond motif; native or recombinant
[2]
  apoptosis of cardiac stem cells (morphology, acridine orange/ethidium bromide staining): no sign of apoptosis
KG-293 cells; KG-293 cells with intracellular overexpression of truncated clusterin (pKS7, tetracycline 1 μg/ml)
  effect on the pro-apoptotic effect of TNF-α: significantly attenuated
[1]; overexpression of clusterin by cDNA transfection
  effect on oxysterol-induced DNA fragmentation and apoptosis in vascular cells: markedly reduces the DNA fragmentation and apoptosis
Stem cells
  apoptosis of stem cells under culture condition with clusterin: no apoptosis
[3]
  binding to 7-ketocholesterol versus free cholesterol (dot blot intensity): much higher intensities than free cholesterol
[4]
  expression of ALDH in smooth muscle cells: significantly induced expression of ALDH
